Tests used:
rice [1] = assay: Control of aquatic plant species (paddy water); format: in vivo, Oryza sativa; conditions: Oryza sativa, 216 h, nine days, read-out: Percent control; for pest or weed control at 500 g/ha: 0.5 Kg/Ha
Procedure: (§1) In testing for such utility, the plant species to be tested were transplanted into 16 oz. containers into about 2 inches of soil when they were in the 1-2 inch stage and then flooded to a depth of about 1 inch. An acetone concentrate of the chemical to be tested was then injected into the paddy water, the volume injected being varied as desired to provide the desired concentration. Percent control was evaluated nine days after application.

barnyardgrass [2] = assay: Control of aquatic plant species (paddy water); format: in vivo, Echinochloa crusgalli; conditions: Echinochloa crus-galli, 216 h, nine days, read-out: Percent control; for pest or weed control at 500 g/ha: 0.5 Kg/Ha
Procedure: as §1

sprangletop = assay: Control of aquatic plant species (paddy water); format: in vivo, Leptochloa filiformis; conditions: Leptochloa filiformis, 216 h, nine days, read-out: Percent control; for pest or weed control at 500 g/ha: 0.5 Kg/Ha
Procedure: as §1

yellow nutsedge [3] = assay: Control of aquatic plant species (paddy water); format: in vivo, Cyperus esculentus; conditions: Cyperus, 216 h, nine days, read-out: Percent control; for pest or weed control at 500 g/ha: 0.5 Kg/Ha
Procedure: as §1

[4] = system: nitrification of ammonium nitrogen; assay: Suppression of nitrification of ammonium nitrogen in soil; conditions: 27° C.
Summary of the method: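 Soil (20 g) moistened to its 1/3 bar tension value, mixed with test chemical and incubated sealed for two weeks at 27° C. Nitrate extracted with ammonium sulfate solution and measured by nitrate-specific ion electrode; value given as % NH4-N remaining.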

cotton = assay: Postemergent control of plant species; format: in vivo, Gossypium spp.; conditions: Gossypium hirsutum, post-emergence, 336 h, read-out: percent postemergent control
Procedure: (§2) In representative operations, each compound to be utilized in a series of tests is dissolved in acetone to one-half of the final volume (twice the final concentration) to be used and the acetone solution in each case is admixed with an equal volume of water containing 0.1 percent by weight of surface active material. The compositions, generally in the nature of an emulsion, were employed to spray separate respective plant species which had been grown to a 2-4 leaf stage in soil of good nutrient content in a greenhouse. The various beds were positioned side by side and exposed to substantially identical conditions of temperature and light. Each bed was maintained so as to prevent any interaction with test compounds in different seed beds. Other plants were left untreated to serve as controls. After treatment, the plants were maintained for about two weeks under greenhouse conditions conducive for good plant growth and watered as necessary. Control refers to the reduction in growth compared to the observed results of the same untreated species.

rape = assay: Postemergent control of plant species; format: in vivo, Brassica napus; conditions: Brassica napus, post-emergence, 336 h, read-out: percent postemergent control
Procedure: as §2

soybean = assay: Postemergent control of plant species; format: in vivo, Glycine max.; conditions: Glycine max, post-emergence, 336 h, read-out: percent postemergent control
Procedure: as §2

sugar beet = assay: Postemergent control of plant species; format: in vivo, Beta saccharifera; conditions: Beta vulgaris, post-emergence, 336 h, read-out: percent postemergent control
Procedure: as §2

cocklebur = assay: Postemergent control of plant species; format: in vivo, Xanthium spp.; conditions: Xanthium strumarium, post-emergence, 336 h, read-out: percent postemergent control
Procedure: as §2

jimsonweed = assay: Postemergent control of plant species; format: in vivo, Datura stramonium; conditions: Datura stramonium, post-emergence, 336 h, read-out: percent postemergent control
Procedure: as §2

annual morning glory = assay: Postemergent control of plant species; format: in vivo, Ipomoea spp.; conditions: Ipomoea, post-emergence, 336 h, read-out: percent postemergent control
Procedure: as §2

pigweed = assay: Postemergent control of plant species; format: in vivo, Amaranthus spp.; conditions: Amaranthus retroflexus, post-emergence, 336 h, read-out: percent postemergent control
Procedure: as §2

velvetleaf = assay: Postemergent control of plant species; format: in vivo, Abutilon theophrasti; conditions: Abutilon theophrasti, post-emergence, 336 h, read-out: percent postemergent control
Procedure: as §2

corn = assay: Postemergent control of plant species; format: in vivo, Zea mays; conditions: Zea mays, post-emergence, 336 h, read-out: percent postemergent control
Procedure: as §2

rice [5] = assay: Postemergent control of plant species; format: in vivo, Oryza sativa; conditions: Oryza sativa, post-emergence, 336 h, read-out: percent postemergent control
Procedure: as §2

sorghum = assay: Postemergent control of plant species; format: in vivo, Sorghum vulgare; conditions: Sorghum, post-emergence, 336 h, read-out: percent postemergent control
Procedure: as §2

barnyardgrass [6] = assay: Postemergent control of plant species; format: in vivo, Echinochloa crusgalli; conditions: Echinochloa crus-galli, post-emergence, 336 h, read-out: percent postemergent control
Procedure: as §2

crabgrass = assay: Postemergent control of plant species; format: in vivo, Digitaria spp.; conditions: Digitaria sanguinalis, post-emergence, 336 h, read-out: percent postemergent control
Procedure: as §2

yellow foxtail = assay: Postemergent control of plant species; format: in vivo, Setaria lutescens; conditions: Setaria, post-emergence, 336 h, read-out: percent postemergent control
Procedure: as §2

johnson grass = assay: Postemergent control of plant species; format: in vivo, Sorghum halepense; conditions: Sorghum halepense, post-emergence, 336 h, read-out: percent postemergent control
Procedure: as §2

wild oats = assay: Postemergent control of plant species; format: in vivo, Avena fatua; conditions: Avena fatua, post-emergence, 336 h, read-out: percent postemergent control
Procedure: as §2

yellow nutsedge [7] = assay: Postemergent control of plant species; format: in vivo, Cyperus esculentus; conditions: Cyperus, post-emergence, 336 h, read-out: percent postemergent control
Procedure: as §2

wheat = assay: Postemergent control of plant species; format: in vivo, Triticum aestivum; conditions: Triticum aestivum, post-emergence, 336 h, read-out: percent postemergent control
Procedure: as §2

## Cc1cc(C)n2nc(S(=O)(=O)Nc3c(Cl)cccc3I)nc2n1 [Compound 53]
Rice [1]; 0.031 Kg/Ha
  pest or weed control at 31 g/ha: 0%
Rice [1]
  pest or weed control at 500 g/ha: 99%
Barnyardgrass [2]; 0.031 Kg/Ha
  pest or weed control at 31 g/ha: 80%
Barnyardgrass [2]
  pest or weed control at 500 g/ha: 99%
sprangletop; 0.031 Kg/Ha
  pest or weed control at 31 g/ha: 10%
sprangletop
  pest or weed control at 500 g/ha: 97%
Yellow nutsedge [3]; 0.031 Kg/Ha
  pest or weed control at 31 g/ha: 95%
Yellow nutsedge [3]
  pest or weed control at 500 g/ha: 99%
[4]; 0.01 ppm
  % NH4-N Remaining After 2 Weeks Incubation: 47%
[4]; 0.1 ppm
  % NH4-N Remaining After 2 Weeks Incubation: 71%
[4]; 1 ppm
  % NH4-N Remaining After 2 Weeks Incubation: 85%
[4]; 10 ppm
  % NH4-N Remaining After 2 Weeks Incubation: 93%

## Cc1cc(C)n2nc(S(=O)(=O)Nc3c(F)cccc3Cl)nc2n1 [Compound 54]
Rice [1]
  pest or weed control at 500 g/ha: 97%
Barnyardgrass [2]
  pest or weed control at 500 g/ha: 97%
sprangletop
  pest or weed control at 500 g/ha: 0%
Yellow nutsedge [3]
  pest or weed control at 500 g/ha: 95%
[4]; 0.06 ppm
  % NH4-N Remaining After 2 Weeks Incubation: 20%
[4]; 0.25 ppm
  % NH4-N Remaining After 2 Weeks Incubation: 51%
[4]; 1 ppm
  % NH4-N Remaining After 2 Weeks Incubation: 66%
[4]; 4 ppm
  % NH4-N Remaining After 2 Weeks Incubation: 76%

## O=S(=O)(Nc1ccccc1C(F)(F)F)c1nc2ncc(Cl)cn2n1 [Compound 118]
cotton
  plant injury at 500 ppm: 0%
rape
  plant injury at 500 ppm: 80%
soybean
  plant injury at 500 ppm: 0%
Sugar beet
  plant injury at 500 ppm: 100%
cocklebur
  pest or weed control at 500 ppm: 100%
jimsonweed
  pest or weed control at 500 ppm: 100%
Annual morning glory
  pest or weed control at 500 ppm: 70%
pigweed
  pest or weed control at 500 ppm: 70%
velvetleaf
  pest or weed control at 500 ppm: 80%
corn
  plant injury at 500 ppm: 0%
Rice [5]
  plant injury at 500 ppm: 0%
sorghum
  plant injury at 500 ppm: 0%
Barnyardgrass [6]
  pest or weed control at 500 ppm: 0%
crabgrass
  pest or weed control at 500 ppm: 60%
Yellow foxtail
  pest or weed control at 500 ppm: 20%
Johnson grass
  pest or weed control at 500 ppm: 0%
Wild oats
  pest or weed control at 500 ppm: 0%
Yellow nutsedge [7]
  pest or weed control at 500 ppm: 70%
[4]; 0.06 ppm
  % NH4-N Remaining After 2 Weeks Incubation: 30%
[4]; 0.25 ppm
  % NH4-N Remaining After 2 Weeks Incubation: 37%
[4]; 1 ppm
  % NH4-N Remaining After 2 Weeks Incubation: 61%
[4]; 4 ppm
  % NH4-N Remaining After 2 Weeks Incubation: 85%

## Cc1ccn2nc(S(=O)(=O)N(C(=O)N(C)C)c3c(Cl)cccc3Cl)nc2n1 [Compound 273]
rape
  plant injury at 500 ppm: 100%
soybean
  plant injury at 500 ppm: 40%
Sugar beet
  plant injury at 500 ppm: 100%
cocklebur
  pest or weed control at 500 ppm: 40%
jimsonweed
  pest or weed control at 500 ppm: 100%
Annual morning glory
  pest or weed control at 500 ppm: 80%
pigweed
  pest or weed control at 500 ppm: 100%
velvetleaf
  pest or weed control at 500 ppm: 50%
corn
  plant injury at 500 ppm: 0%
Rice [5]
  plant injury at 500 ppm: 20%
sorghum
  plant injury at 500 ppm: 40%
wheat
  plant injury at 500 ppm: 0%
Barnyardgrass [6]
  pest or weed control at 500 ppm: 20%
crabgrass
  pest or weed control at 500 ppm: 100%
Yellow foxtail
  pest or weed control at 500 ppm: 75%
Johnson grass
  pest or weed control at 500 ppm: 30%
Wild oats
  pest or weed control at 500 ppm: 0%
Yellow nutsedge [7]
  pest or weed control at 500 ppm: 40%

Source: patent publication US4740233A, “Substituted 1,2,4-triazolo[1,5-a]-pyrimidine-2-sulfonamides and compositions and methods of controlling undesired vegetation and suppressing the nitrification of ammonium nitrogen in soil” (The Dow Chemical Company, priority 1986, dated 1988)
